pEC50, pIC50: −log10 of the molar value. Converted amounts (≈) assume the structure as drawn. Blank lines part the entries; values can stand above or below the compound they belong to.
Key:
Dipeptidyl peptidase 4 [1] = target: T1, Dipeptidyl peptidase 4 (Homo sapiens, UniProt P27487); experiment: Inhibition of DPP4 (unknown origin)
[2] = target: T2, Calcitonin gene-related peptide 1 (Homo sapiens, UniProt P06881); experiment: Inhibition of CGRP (unknown origin)
T2 sequence (P06881 whole entry): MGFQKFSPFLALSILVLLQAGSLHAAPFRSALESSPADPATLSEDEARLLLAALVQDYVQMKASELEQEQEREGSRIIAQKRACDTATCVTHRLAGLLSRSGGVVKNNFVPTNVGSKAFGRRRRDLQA

[3] = Oral bioavailability in rhesus monkey at 21 mg/kg; format: ADME, organism-based, Macaca mulatta; details: in vivo
Tyrosinase = target: T3, Tyrosinase (Homo sapiens, UniProt P14679); experiment: Inhibition of tyrosinase (unknown origin) incubated for 20 mins
T3 sequence (P14679 whole entry): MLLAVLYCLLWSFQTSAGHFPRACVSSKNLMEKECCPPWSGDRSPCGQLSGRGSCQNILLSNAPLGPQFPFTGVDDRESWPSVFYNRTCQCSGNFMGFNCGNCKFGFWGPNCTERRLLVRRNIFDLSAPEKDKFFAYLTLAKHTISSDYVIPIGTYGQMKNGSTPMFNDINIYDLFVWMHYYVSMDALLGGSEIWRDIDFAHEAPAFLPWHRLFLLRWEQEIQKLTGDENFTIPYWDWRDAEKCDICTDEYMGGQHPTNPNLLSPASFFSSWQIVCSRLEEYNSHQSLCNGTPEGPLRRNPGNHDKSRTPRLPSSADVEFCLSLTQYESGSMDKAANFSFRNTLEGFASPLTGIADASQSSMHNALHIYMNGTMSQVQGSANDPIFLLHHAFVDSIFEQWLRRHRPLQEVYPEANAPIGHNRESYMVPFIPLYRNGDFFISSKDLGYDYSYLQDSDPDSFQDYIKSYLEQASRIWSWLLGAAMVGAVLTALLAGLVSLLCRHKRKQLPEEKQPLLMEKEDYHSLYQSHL

[4] = target: T4, Purine nucleoside phosphorylase (Homo sapiens, UniProt P00491); experiment: Inhibition of PNP (unknown origin) expressed in Escherichia coli
T4 sequence (P00491 whole entry): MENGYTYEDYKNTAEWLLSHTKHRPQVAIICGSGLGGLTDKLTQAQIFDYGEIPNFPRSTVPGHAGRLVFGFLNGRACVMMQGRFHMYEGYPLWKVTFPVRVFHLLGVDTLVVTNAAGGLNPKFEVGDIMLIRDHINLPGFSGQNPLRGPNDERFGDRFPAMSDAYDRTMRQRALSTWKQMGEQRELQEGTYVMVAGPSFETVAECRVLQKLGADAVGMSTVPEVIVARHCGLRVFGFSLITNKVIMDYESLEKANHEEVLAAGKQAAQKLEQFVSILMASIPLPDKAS

[5] = target: T5, Amine oxidase [flavin-containing] B (Homo sapiens, UniProt P27338); experiment: Inhibition of MAO-B (unknown origin)
T5 sequence (P27338 whole entry): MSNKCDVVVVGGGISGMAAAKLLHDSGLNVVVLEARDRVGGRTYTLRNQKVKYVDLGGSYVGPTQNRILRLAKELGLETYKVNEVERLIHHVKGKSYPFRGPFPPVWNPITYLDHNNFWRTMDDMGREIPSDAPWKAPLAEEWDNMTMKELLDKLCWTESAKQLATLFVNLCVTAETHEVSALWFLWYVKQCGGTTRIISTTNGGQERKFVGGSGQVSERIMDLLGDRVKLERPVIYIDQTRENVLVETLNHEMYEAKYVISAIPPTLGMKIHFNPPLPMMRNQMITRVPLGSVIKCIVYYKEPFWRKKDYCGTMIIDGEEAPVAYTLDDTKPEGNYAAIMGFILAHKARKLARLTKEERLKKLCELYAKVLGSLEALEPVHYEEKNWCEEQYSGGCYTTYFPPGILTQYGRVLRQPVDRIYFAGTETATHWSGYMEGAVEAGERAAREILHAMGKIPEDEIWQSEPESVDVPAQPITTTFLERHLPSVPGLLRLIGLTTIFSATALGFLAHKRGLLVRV

[6] = Half life in Sprague-Dawley rat at 1 mg/kg; format: ADME, organism-based; details: in vivo
[7] = Half life in rhesus monkey at 1 mg/kg, iv; format: ADME, organism-based, Macaca mulatta; details: in vivo
[8] = Half life in human; format: ADME
[9] = target: GABA-A receptor; anion channel; experiment: In vivo receptor occupancy at GABAA receptor in po dosed Sprague-Dawley rat assessed as plasma concentration causing 50% reduction at 0.39 mg/kg measured after 48 hrs by LC/MS method; format: functional, organism-based
[10] = Half life in dog at 1 mg/kg; format: ADME, organism-based, Canis lupus familiaris; details: in vivo
[11] = Plasma protein binding in rhesus monkey; format: ADME, cell-free; details: Macaca mulatta
Entamoeba histolytica = experiment: Antiparasitic activity against Entamoeba histolytica HM1:1MSS assessed as parasitic growth inhibition by microdilution method; format: functional, organism-based
[12] = target: T6, Glucose-dependent insulinotropic receptor (Homo sapiens, UniProt Q8TDV5); experiment: Inhibition of GPR119 (unknown origin) at 10 uM
T6 sequence (Q8TDV5 whole entry): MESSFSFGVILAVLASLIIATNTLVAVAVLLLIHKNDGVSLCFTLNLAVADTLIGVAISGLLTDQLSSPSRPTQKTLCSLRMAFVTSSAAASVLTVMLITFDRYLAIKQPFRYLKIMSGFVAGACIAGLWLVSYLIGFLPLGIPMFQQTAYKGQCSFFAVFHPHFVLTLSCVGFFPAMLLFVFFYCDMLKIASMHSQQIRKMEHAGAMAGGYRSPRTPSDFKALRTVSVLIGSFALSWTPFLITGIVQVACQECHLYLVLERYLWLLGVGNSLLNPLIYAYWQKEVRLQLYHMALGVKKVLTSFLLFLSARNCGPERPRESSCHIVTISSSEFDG

[13] = Inhibition of urease (unknown origin) measured after 20 mins
[14] = target: T7, Tyrosinase (Homo sapiens) (UniProt P14679); experiment: Inhibition of tyrosinase (unknown origin) relative to control; details: concentration not given here
T7 sequence (whole entry): T3 sequence (P14679 whole entry)

[15] = target: T7, Tyrosinase (Homo sapiens); experiment: Inhibition of tyrosinase (unknown origin) assessed as enzyme residual activity at 0.07 mg/ml relative to control; values are per cent of control
[16] = Antiproliferative activity against human NCI cells assessed as reduction in cell viability at 100 uM by MTT assay; format: functional; details: read-out: GI
[17] = target: T8, Cyclin-dependent kinase 2 (Homo sapiens, UniProt P24941); experiment: Inhibition of CDK2 (unknown origin); details: concentration not given here
[18] = target: T8, Cyclin-dependent kinase 2; experiment: Inhibition of human CDK2 at 10 uM
Dipeptidyl peptidase 4 [19] = target: T1, Dipeptidyl peptidase 4; experiment: Inhibition of human DPP4
A549 [20] = experiment: Antiproliferative activity against human A549 cells; format: functional, cell-based
A549 [21] = experiment: Cytotoxicity against human A549 cells assessed as reduction in cell viability at 100 uM by MTT assay; format: functional, cell-based
MDA-MB-231 = experiment: Cytotoxicity against human MDA-MB-231 cells assessed as reduction in cell viability at 100 uM by MTT assay; format: functional, cell-based

T1 sequence (P27487 whole entry): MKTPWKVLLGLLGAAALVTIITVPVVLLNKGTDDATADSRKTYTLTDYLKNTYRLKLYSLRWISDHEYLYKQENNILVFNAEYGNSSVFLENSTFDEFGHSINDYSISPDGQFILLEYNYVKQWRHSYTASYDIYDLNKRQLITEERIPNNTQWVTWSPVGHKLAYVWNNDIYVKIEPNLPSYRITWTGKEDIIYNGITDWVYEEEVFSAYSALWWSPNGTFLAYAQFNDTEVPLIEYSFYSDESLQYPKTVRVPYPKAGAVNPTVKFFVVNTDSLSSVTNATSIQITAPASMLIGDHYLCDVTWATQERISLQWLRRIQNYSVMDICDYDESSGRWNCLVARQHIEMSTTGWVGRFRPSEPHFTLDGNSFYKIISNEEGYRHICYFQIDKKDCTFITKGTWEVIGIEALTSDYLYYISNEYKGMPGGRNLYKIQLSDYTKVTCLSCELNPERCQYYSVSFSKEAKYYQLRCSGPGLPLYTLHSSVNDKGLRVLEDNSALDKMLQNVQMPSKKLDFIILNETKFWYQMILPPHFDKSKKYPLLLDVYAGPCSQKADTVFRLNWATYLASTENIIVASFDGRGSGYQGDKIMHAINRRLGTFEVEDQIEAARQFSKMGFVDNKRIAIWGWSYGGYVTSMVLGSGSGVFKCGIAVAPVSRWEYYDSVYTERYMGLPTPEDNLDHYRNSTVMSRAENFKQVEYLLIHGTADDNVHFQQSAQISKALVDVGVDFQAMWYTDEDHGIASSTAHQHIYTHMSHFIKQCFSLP

SMILES: CCOc1ccc(S(=O)(=O)N[C@@H](CO)CC(C)C)cc1-c1nnc2c(n1)c(C)nn2C
- pIC50 (Tyrosinase): 4.55

SMILES: Cc1ncc([N+](=O)[O-])n1CCO [METRONIDAZOLE]
- pIC50 (Entamoeba histolytica): 5.74

SMILES: NC(N)=S [THIOUREA]
- pIC50 [13]: 4.68

SMILES: CCOC(=O)c1cnn2c(-c3ccc(Cl)cc3)nc(NCc3ccccc3)nc12
- inhibition of growth at 100 µM [16]: 41.8%
- inhibition [17]: 82.4%
- pIC50 [18]: 5.73

SMILES: Cc1nnc2n(NC(=S)NC3CCCCCCC3)c(C)nnc1-2
- pIC50 (Entamoeba histolytica): 6.09

SMILES: O=C(NCCc1ccccc1)c1cnn2c(-c3ccc(Cl)cc3)nc(NCCc3ccccc3)nc12
- inhibition of growth at 100 µM [16]: 33.3%
- inhibition [17]: 82%
- pIC50 [18]: 5.68

SMILES: O=c1cc2nc(-c3ccccc3)nc(SCCc3ccccc3)n2[nH]1
- pIC50 (A549 [20]): 4.28

SMILES: Cc1nnc2n(NC(=S)NC3C4CC5CC(C4)CC3C5)c(C)nnc1-2 (centres undefined)
- pIC50 (Entamoeba histolytica): 6.27

SMILES: O=c1[nH]c(=O)n([C@H]2C[C@H](O)[C@@H](CO)O2)cc1F [FLOXURIDINE]
- pIC50 (A549 [21]): 5.24
- pIC50 (MDA-MB-231): 4.42

SMILES: Cc1nnc2n(NC(=S)NC3CCCCC3)c(C)nnc1-2
- pIC50 (Entamoeba histolytica): 6.09

SMILES: CCOc1ccc(S(=O)(=O)N[C@H](CO)CC(C)C)cc1-c1nnc2c(n1)c(C)nn2C
- pIC50 [13]: 7.38

More lines, now with the values ahead:

- pIC50 (Dipeptidyl peptidase 4 [1]): 4.27
SMILES: CCOC(=O)c1n[nH]c2c(C(=O)OCC)cnn2c1=O

- pIC50 [2]: 4.28
SMILES: CN(C)CCCNc1nc(N)nc2cc(-c3ccccc3)nn12

- bioavailability [3]: 50%
SMILES: COCC(COC)Nc1nc(C)nc2c(-c3ccc(Cl)cc3Cl)c(C)nn12

- pIC50 [4]: 4.40
SMILES: CSC1=NNC2NN=C(C)C2=N1 (centres undefined)

- pIC50 [5]: 4.61
SMILES: CCSc1nc(-c2ccc(C)cc2)n2nc(C)cc2n1

- half-life [6]: 30 min
- half-life [7]: 18 min
- half-life [8]: 210 min
- pEC50 [9]: 7.39
- half-life [10]: 30 min
- EC50 [11]: 0.021 mg/L (≈ 0.057 µM)
SMILES: Cc1cc(-c2nncc3c(C(C)(C)C)c(OCc4ncnn4C)nn23)no1

- pIC50 [12]: 4.74
- pIC50 [2]: 4.29
SMILES: Nc1nc(Nc2ccc(F)cc2)n2nc(-c3ccccc3)cc2n1

- pIC50 (Tyrosinase): 4.51
SMILES: CCOc1ccc(S(=O)(=O)N[C@H](C)CO)cc1-c1nnc2c(n1)c(C)nn2C

- inhibition [14]: 3.7%
- residual activity [15]: 96.3%
SMILES: CCOc1ccc(S(=O)(=O)NCCN)cc1-c1nnc2c(n1)c(C)nn2C

- pIC50 (Dipeptidyl peptidase 4 [19]): 4.21
SMILES: N#Cc1cnn2c(=O)c([N+](=O)[O-])n[nH]c12

- pIC50 (Dipeptidyl peptidase 4 [1]): 4.32
SMILES: CCOC(=O)c1cnn2c(=O)c(C(=O)NC(C)(C)C)n[nH]c12

- pIC50 [2]: 5.12
SMILES: Cc1ccc(Nc2nc(N)nc3cc(-c4ccccc4)nn23)cc1

- pIC50 (Dipeptidyl peptidase 4 [19]): 4.20
SMILES: N/C(=N\O)c1cnn2c(=O)c([N+](=O)[O-])n[nH]c12

- pIC50 (Dipeptidyl peptidase 4 [19]): 3.21
SMILES: CCOC(=O)c1cnn2c(=O)c([N+](=O)[O-])n[nH]c12

- pIC50 [13]: 7.43
SMILES: CCOc1ccc(S(=O)(=O)N[C@@H](C)CO)cc1-c1nnc2c(n1)c(C)nn2C

- pIC50 [13]: 7.36
SMILES: CCOc1ccc(S(=O)(=O)NC[C@@H](C)O)cc1-c1nnc2c(n1)c(C)nn2C

Source: ChEMBL document CHEMBL5241085, “Pyrazolotriazines: Biological activities, synthetic strategies and recent developments” (Eur J Med Chem, 2021)
